Measurements reported in paper PMC10714400, “Antimicrobial Peptide–Peptoid Hybrids with and without Membrane Disruption” (ACS Infectious Diseases, 2023).
≈ marks a conversion by molar mass, not a printed value. Like-named read-outs stand apart in the source and are kept apart here. Where a SMILES comes first, the peptide text is derived from it. [ ]: non-standard residue; d: D form. Nleu = CC(C)CNCC(=O)O; Nlys = NCCCCNCC(=O)O

Columns and labels:
B. cenocepacia = details: pH 7.4
Summary of the method: (§1)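 MICs were determined by broth microdilution in MH medium, with approximately 5 × 10^5 CFU added per well and plates held at 37 °C for about 18 h without shaking.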

P. aeruginosa PA14 = system: P. aeruginosa PA14
Summary of the method: as §1

S. aureus Newman = details: Newman
Summary of the method: as §1

S. epidermis = system: S. epidermis
Summary of the method: as §1

S. maltophilia = system: S. maltophilia
Summary of the method: as §1

PA14 4.13 (phoQ) = system: PA14 4.13 (phoQ)
Summary of the method: as §1

K. pneumoniae OXA-48 = system: K. pneumoniae OXA-48
Summary of the method: as §1

S. aureus COL (MRSA) = details: COL, 4 h
Summary of the method: as §1

E. cloacae = system: E. cloacae
Summary of the method: as §1

[1] = system: ZEM9A (clinical MDR P. aeruginosa isolate)
Summary of the method: as §1

PA14 2P4 (pmrB) = system: PA14 2P4 (pmrB)
Summary of the method: as §1

E. coli W3110 = system: E. coli W3110
Summary of the method: as §1

[2] = system: ZEM-1A (clinical MDR P. aeruginosa isolate); details: CSV
Summary of the method: as §1

[3] = system: human red blood cells (hRBC); assay: Minimum hemolytic concentration (MHC); format: cell-based
Text: We also measured minimal hemolysis concentrations (MHC) on human red blood cells by serial 2-fold dilution as an indication of toxicity against eukaryotic cells (Table 1).

Structure (SMILES): CC(C)C[C@H](NC(=O)[C@H](CC(C)C)NC(=O)[C@H](CC(C)C)NC(=O)[C@H](CCCCN)NC(=O)[C@H](CC(C)C)NC(=O)[C@H](CC(C)C)NC(=O)CN(CCCCN)C(=O)CN(CC(C)C)C(=O)CN(CC(C)C)C(=O)CN(CCCCN)C(=O)CNCCCCN)C(N)=O [EB5, kkllkLLKLLL] (H-[Nlys][Nlys][Nleu][Nleu][Nlys]LLKLLL-NH2)
- MIC B. cenocepacia, full MH at pH 7.4 (B. cenocepacia; 4 h): >32 ug/mL
- MIC B. cenocepacia (B. cenocepacia): >32 µg/mL
- MIC P. aeruginosa PA14, full MH at pH 7.4 (P. aeruginosa PA14; PA14, 4 h, pH 7.4): 6 ug/mL
- MIC P. aeruginosa PA14 (P. aeruginosa PA14; PA14, pH 7.4): 4 to 8 µg/mL
- MIC P. aeruginosa PA14 (P. aeruginosa PA14; PA14, pH 8.5): 2 µg/mL (≈ 1.51 µM)
- MIC S. aureus Newman, full MH at pH 7.4 (S. aureus Newman; 4 h, pH 7.4): >32 ug/mL
- MIC S. aureus Newman (S. aureus Newman; 4 h, pH 8.5): 2 µg/mL (≈ 1.51 µM)
- MIC S. aureus Newman (S. aureus Newman; pH 7.4): >32 µg/mL
- MIC S. epidermis, full MH at pH 7.4 (S. epidermis; 4 h, pH 7.4): 6 ug/mL
- MIC S. epidermis (S. epidermis; 4 h, pH 8.5): 2 µg/mL (≈ 1.51 µM)
- MIC S. epidermis (S. epidermis; pH 7.4): 4 to 8 µg/mL
- MIC S. maltophilia, full MH at pH 7.4 (S. maltophilia; 4 h, pH 7.4): 8 ug/mL
- MIC S. maltophilia (S. maltophilia; 4 h, pH 8.5): 4 to 8 µg/mL
- MIC S. maltophilia (S. maltophilia; pH 7.4): 8 µg/mL (≈ 6.05 µM)
- MIC P. aeruginosa PA14 4.13, […] MH at pH 8.5 (PA14 4.13 (phoQ); CSV, […] MH at pH 8.5): 2 ug/mL
- MIC P. aeruginosa PA14 4.13, full MH at pH 7.4 (PA14 4.13 (phoQ); CSV, full MH at pH 7.4): 8 ug/mL
- MIC PA14 4.13 (phoQ) (PA14 4.13 (phoQ); MH pH 7.4, 16–20 h at 37 °C): 8 µg/mL (≈ 6.05 µM)
- MIC P. aeruginosa PA14 4.13 (PA14 4.13 (phoQ); Table S3, […] MH at pH 8.5): 2 µg/mL (≈ 1.51 µM)
- MIC K. pneumoniae OXA-48, […] MH at pH 8.5 (K. pneumoniae OXA-48; CSV, […] MH at pH 8.5): 8 ug/mL
- MIC K. pneumoniae OXA-48, full MH at pH 7.4 (K. pneumoniae OXA-48; CSV, full MH at pH 7.4): >32 ug/mL
- MIC K. pneumoniae OXA-48 (K. pneumoniae OXA-48; MH pH 7.4, 16–20 h at 37 °C): 32 to 64 µg/mL
- MIC K. pneumoniae OXA-48 (K. pneumoniae OXA-48; Table S3, […] MH at pH 8.5): 8 µg/mL (≈ 6.05 µM)
- MIC S. aureus COL (MRSA), full MH at pH 7.4 (S. aureus COL (MRSA); pH 7.4): 8 ug/mL
- MIC S. aureus COL (MRSA), full MH at pH 8.5 (S. aureus COL (MRSA); pH 8.5): >32 ug/mL
- MIC E. cloacae, full MH at pH 7.4 (E. cloacae; 4 h, pH 7.4): 12 ug/mL
- MIC E. cloacae (E. cloacae; 4 h, pH 8.5): 4 µg/mL (≈ 3.03 µM)
- MIC E. cloacae (E. cloacae; pH 7.4): 8 to 16 µg/mL
- MIC P. aeruginosa ZEM9A, […] MH at pH 8.5 ([1]; CSV, […] MH at pH 8.5): 2 ug/mL
- MIC P. aeruginosa ZEM9A, full MH at pH 7.4 ([1]; CSV, full MH at pH 7.4): 8 ug/mL
- MIC ZEM9A ([1]; MH pH 7.4, 16–20 h at 37 °C): 8 µg/mL (≈ 6.05 µM)
- MIC P. aeruginosa ZEM9A ([1]; Table S3, […] MH at pH 8.5): 2 µg/mL (≈ 1.51 µM)
- MIC P. aeruginosa PA14 2P4, […] MH at pH 8.5 (PA14 2P4 (pmrB); CSV, […] MH at pH 8.5): 2 ug/mL
- MIC P. aeruginosa PA14 2P4, full MH at pH 7.4 (PA14 2P4 (pmrB); CSV, full MH at pH 7.4): >32 ug/mL
- MIC PA14 2P4 (pmrB) (PA14 2P4 (pmrB); MH pH 7.4, 16–20 h at 37 °C): >32 µg/mL
- MIC P. aeruginosa PA14 2P4 (PA14 2P4 (pmrB); Table S3, […] MH at pH 8.5): 2 µg/mL (≈ 1.51 µM)
- MIC E. coli W3110, […] MH at pH 7.4 (E. coli W3110; CSV, […] MH at pH 7.4): 2 ug/mL
- MIC E. coli W3110, […] MH at pH 8.5 (E. coli W3110; CSV, […] MH at pH 8.5): 2 ug/mL
- MIC E. coli W3110, full MH at pH 7.4 (E. coli W3110; CSV, full MH at pH 7.4): 2 ug/mL
- MIC E. coli W3110, full MH at pH 8.5 (E. coli W3110; CSV, full MH at pH 8.5): >32 ug/mL
- MIC E. coli W3110 […] (E. coli W3110; diluted MH ([…] MH, pH 8.5) per Table 1 footnote b, 16–20 h at 37 °C): 2 µg/mL (≈ 1.51 µM)
- MIC P. aeruginosa ZEM-1A, […] MH at pH 8.5 ([2]; […] MH at pH 8.5): 2 ug/mL
- MIC P. aeruginosa ZEM-1A, full MH at pH 7.4 ([2]; full MH at pH 7.4): 2 ug/mL
- MHC [3]: 1000 µg/mL
- MHC (hemolysis) ([3]; red cells of human): 250 to 1000 µg/mL
